The record followed here is patent US7579012B2, “Targeting of triacylglycerol synthase gene for tuberculosis treatment” (University of Central Florida Research Foundation, Inc., priority 2005, dated 2009).

This experiment has as its target T1, TGS1 (Mycobacterium tuberculosis, UniProt P9WKC9).
T1 construct: made in house; host or cells: E. coli (total cell lysate, not purified)
T1 sequence (P9WKC9 1-463): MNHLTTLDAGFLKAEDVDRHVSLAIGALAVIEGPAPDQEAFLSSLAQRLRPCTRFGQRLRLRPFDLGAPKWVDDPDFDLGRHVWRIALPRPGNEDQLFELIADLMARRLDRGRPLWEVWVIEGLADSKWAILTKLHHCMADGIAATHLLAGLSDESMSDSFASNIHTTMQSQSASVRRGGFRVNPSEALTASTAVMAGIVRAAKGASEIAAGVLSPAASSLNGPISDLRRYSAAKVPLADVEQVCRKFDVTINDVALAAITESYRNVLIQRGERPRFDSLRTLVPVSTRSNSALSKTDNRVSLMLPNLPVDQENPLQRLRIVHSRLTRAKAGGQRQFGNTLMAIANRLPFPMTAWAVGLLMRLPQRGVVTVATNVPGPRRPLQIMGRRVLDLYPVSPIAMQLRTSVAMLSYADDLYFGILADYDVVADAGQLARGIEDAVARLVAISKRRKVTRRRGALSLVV
The class given is biochemical, M. tuberculosis. The following applies: acyl-CoA substrate, pH 6.5, 37° C., 2 h; for Km: from linear double-reciprocal plots.

One may read the Vmax as the rate approached at saturating substrate. The term Km denotes the substrate concentration at which the rate is half of its maximum. As to `CCCCCCCC/C=C\CCCCCCCC(=O)SCCNC(=O)CCNC(=O)[C@H](O)C(C)(C)COP(=O)(O)OP(=O)(O)OC[C@H]1O[C@@H](n2cnc3c(N)ncnc32)[C@H](O)[C@@H]1OP(=O)(O)O` [C18:1-CoA, oleoyl (C18:1)-CoA], the Vmax turned out to be 1.1 nmol/mg/min and the Km was determined as 540 µM.

On to `CCCCCCCCCCCCCCCCCCCCCCCCCC(=O)SCCNC(=O)CCNC(=O)[C@H](O)C(C)(C)COP(=O)(O)OP(=O)(O)OC[C@H]1O[C@@H](n2cnc3c(N)ncnc32)[C@H](O)[C@@H]1OP(=O)(O)O` [C26:0-CoA, hexacosanoyl (C26:0)-CoA], for which the Vmax is recorded as 2.4 nmol/mg/min and the Km was found to be 306 µM.
